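The compound was tested at five concentrations on cells cultured in 96-well plates, with a 48-hour exposure period. TGI is the concentration that stops growth completely.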
What was measured:
Test in all cases: NCI tumour cell line growth inhibition, 48 h
[1] = tested on: BT-549 breast
[2] = tested on: HOP-92 NSCLC
[3] = tested on: LOX IMVI melanoma
[4] = tested on: MCF7 breast
[5] = tested on: MDA-N
[6] = tested on: MOLT-4 leukemia
[7] = tested on: OVCAR-5 ovarian
[8] = tested on: SF-295 CNS
[9] = tested on: SK-OV-3 ovarian
[10] = tested on: SN12C renal
[11] = tested on: U251 CNS
[12] = tested on: UO-31 renal

Row | Structure (SMILES) | TGI [1] [µM] | TGI [2] [µM] | TGI [3] [µM] | TGI [4] [µM] | TGI [5] [µM] | TGI [6] [µM] | TGI [7] [µM] | TGI [8] [µM] | TGI [9] [µM] | TGI [10] [µM] | TGI [11] [µM] | TGI [12] [µM]
1 | CC(C(=O)ON1C(=O)CCC1=O)c1ccc(C(=O)c2ccccc2)s1 (centres undefined) | > 100 | > 100 | > 100 | > 100 | > 100 | > 100 | > 100 | > 100 | > 100 | > 100 | > 100 | > 100
2 | Cc1ccc(OCC2OC(n3cnc4nc(Cl)nc(Cl)c43)CC2Oc2ccc(C)cc2)cc1 (centres undefined) | 30.4 | 9.88 | 3.45 | 20.6 | 13.7 | 5.76 | 32.1 | 30.6 | > 89.5 | 20.5 | 55.5 | 22
3 | COC1=C(N=[N+]=[N-])C(=O)c2ncccc2C1=O | 23 | 2.56 | 7.78 | 3.41 | 3.69 | 2.86 | 33.8 | 29 | 28.5 | 29.1 | 27.7 | 27.6
4 | O=C1/C(=C\c2cccc(Oc3ccccc3)c2)S(=O)(=O)C(c2ccccc2)N1c1ccccc1Cl (centres undefined) | > 100 | 73.5 | > 100 | > 100 | 50.2 | 48.9 | > 100 | > 100 | > 100 | 72 | > 100 | > 100
5 | COc1cccc(-c2ccc3c4c2O[C@H]2c5[nH]c6ccccc6c5C[C@@]5(O)[C@@H](C3)N(CC3CC3)CC[C@]425)c1 | 15.9 | 3.04 | 3.09 | 3.06 | 3.28 | 9.34 | 20.8 | 3.08 | – | 3.13 | 3.15 | 3.1
6 | NC(=O)c1nnc2cc(F)ccc2c1N | > 100 | – | > 100 | > 100 | > 100 | > 100 | > 100 | > 100 | > 100 | > 100 | > 100 | > 100
7 | CN(C(=O)Cc1ccc(Cl)c(Cl)c1)[C@H]1CCCC[C@@H]1[N+]1(C)CCCC1 | > 100 | – | > 100 | > 100 | > 100 | > 100 | > 100 | > 100 | > 100 | > 100 | > 100 | > 100
8 | O=c1[nH]nc(-c2ccccc2)n1/N=C/c1ccncc1 | > 100 | > 100 | > 100 | > 100 | > 100 | > 100 | > 100 | > 100 | – | > 100 | > 100 | > 100
9 | CCOc1cc(NC(C)=O)ccc1C(=O)NN1C(=O)C(Oc2ccccc2)C1c1ccccc1 (centres undefined) | > 100 | > 100 | > 100 | > 100 | > 100 | 20.4 | > 100 | > 100 | > 100 | > 100 | – | –
10 | Cc1c(C(=O)N2CCN(c3ccc([N+](=O)[O-])cc3)CC2)[n+](=O)c2cc(Cl)c(Cl)cc2n1[O-] | 33 | 34.4 | > 100 | 33.2 | > 100 | > 100 | 44 | 34.2 | 29.5 | 38.2 | 61.5 | –
11 | Cc1cc(-c2[nH]c(C(=O)O)cc2I)on1 | > 100 | > 100 | – | > 100 | > 100 | > 100 | > 100 | > 100 | > 100 | – | > 100 | > 100
12 | CC(C)CCC[C@@H](C)[C@H]1CCC2C3CC=C4C[C@@H](Oc5c6ccccc6nc6ccccc56)CCC4C3CCC21 (some centres undefined) | > 50 | > 50 | > 50 | – | > 50 | – | > 50 | > 50 | > 50 | > 50 | > 50 | > 50
13 | COc1ccc(O[C@H](COCc2ccccc2)C[C@@H]2COC(C)(C)O2)cc1 | > 100 | – | > 100 | > 100 | > 100 | > 100 | > 100 | > 100 | > 100 | > 100 | > 100 | > 100
14 | CCCCc1c(C(=O)OC(C)(C)C)cc(C#Cc2cc(C(=O)OC(C)(C)C)c(CCCC)c(C(=O)OC(C)(C)C)c2)cc1C(=O)OC(C)(C)C | > 100 | > 100 | – | > 100 | > 100 | – | > 100 | > 100 | > 100 | > 100 | > 100 | > 100
15 | COC(=O)c1ccccc1C#CC#Cc1ccccc1C(=O)OC | > 10 | – | > 10 | > 10 | > 10 | > 10 | > 10 | > 10 | > 10 | > 10 | > 10 | > 10
16 | CCOC(=O)Nc1c(C#N)[n+]([O-])c2cc(Cl)c(Cl)cc2[n+]1[O-] | 36.3 | 23 | 27.9 | 41.3 | 43 | 28.7 | – | 34 | 66 | 32 | 32.6 | 31.4
17 | Cn1c(C(C#N)c2nc(Cl)ncc2Br)nc2ccccc21 (centres undefined) | > 100 | > 100 | > 100 | – | > 100 | > 100 | > 100 | > 100 | > 100 | > 100 | > 100 | > 100
18 | COc1ccc2cc1Oc1ccc(cc1)C(Sc1ccccc1)CCOC(=O)CC2 (centres undefined) | > 100 | – | > 100 | > 100 | > 100 | > 100 | > 100 | > 100 | > 100 | > 100 | > 100 | > 100
19 | CN1C(=S)C(c2ccccc2)Sc2ccccc21 (centres undefined) | > 100 | – | > 100 | > 100 | > 100 | > 100 | > 100 | 89.4 | > 100 | > 100 | > 100 | > 100

Reference: PubChem BioAssay (NCI)
